Assay [1] addresses T1, FAK (Homo sapiens, UniProt Q05397). The experiment in a line: Cell-based capture ELISA for inhibition of FAK autophosphorylation [pY397] in MiaPaCa2 cells. As for the experimental part: Cell-Based Assays for Inhibition of FAK Autophosphorylation: MiaPaCa2 and U87MG
ELISA kit from Invitrogen (KHO0441).
Reagents Provided in Biosource FAK [pY397]
The cells were then suspended in cell assay medium.

Assay [2] has as its target T1, FAK. Briefly: biochemical.
Setting [3] is: MIA-PaCa2 cells on fibronectin, 2 h, no plasma, read-out: Mean FAK Cell Mechanistic IC50 MIA-PaCa2.
Where [4] appears, read: MIA-PaCa2 cells, + 50% human plasma, read-out: Mean FAK Cell Mechanistic IC50 + 50% hP MIA-PaCa2.
The mark [5] stands for this setting: MIA-PaCa2 cells, + 50% mouse plasma (Table 2), read-out: Mean FAK Cell Mechanistic IC50 + 50% mP MIA-PaCa2.

Here are results for eight compounds from patent US9096624B2 (OSI Pharmaceuticals, LLC, priority 2009, dated 2015).

Structures are written as SMILES.

T1 sequence (Q05397 whole entry): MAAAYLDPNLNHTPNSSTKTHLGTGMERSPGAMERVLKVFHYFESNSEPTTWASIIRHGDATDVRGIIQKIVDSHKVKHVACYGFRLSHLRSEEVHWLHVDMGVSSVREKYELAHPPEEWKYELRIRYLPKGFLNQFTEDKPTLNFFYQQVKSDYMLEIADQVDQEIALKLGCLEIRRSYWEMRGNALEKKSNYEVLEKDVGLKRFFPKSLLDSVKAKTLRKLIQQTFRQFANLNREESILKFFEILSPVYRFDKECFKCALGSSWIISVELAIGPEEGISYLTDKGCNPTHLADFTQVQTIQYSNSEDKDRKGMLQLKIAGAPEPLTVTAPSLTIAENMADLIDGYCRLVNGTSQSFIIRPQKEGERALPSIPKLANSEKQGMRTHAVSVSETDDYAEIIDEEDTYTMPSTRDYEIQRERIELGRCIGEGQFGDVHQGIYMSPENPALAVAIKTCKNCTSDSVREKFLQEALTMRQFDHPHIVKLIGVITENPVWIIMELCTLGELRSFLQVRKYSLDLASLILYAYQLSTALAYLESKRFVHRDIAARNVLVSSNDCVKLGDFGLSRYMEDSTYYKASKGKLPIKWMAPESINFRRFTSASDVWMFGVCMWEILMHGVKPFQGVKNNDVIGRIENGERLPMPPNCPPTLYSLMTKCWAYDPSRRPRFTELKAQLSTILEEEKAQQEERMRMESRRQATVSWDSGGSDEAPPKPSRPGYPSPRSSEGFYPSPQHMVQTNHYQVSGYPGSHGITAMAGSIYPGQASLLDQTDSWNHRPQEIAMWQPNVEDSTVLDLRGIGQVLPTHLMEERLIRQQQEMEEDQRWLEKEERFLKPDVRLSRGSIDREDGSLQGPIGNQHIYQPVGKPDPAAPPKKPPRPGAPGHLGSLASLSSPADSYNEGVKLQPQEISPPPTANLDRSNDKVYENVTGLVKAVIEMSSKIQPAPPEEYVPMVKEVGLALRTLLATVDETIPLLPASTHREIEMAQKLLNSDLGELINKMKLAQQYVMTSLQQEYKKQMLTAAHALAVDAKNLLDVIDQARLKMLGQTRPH

Take `CCP(=O)(CC)Cc1ccc(Nc2ncc(C(F)(F)F)c(Nc3ccccc3C(=O)NC)n2)cc1` [Example 24, 2-{[2-({4-[(Diethylphosphoryl)methyl]phenyl}amino)-5-(trifluoromethyl)pyrimidin-4-yl]amino}-N-methylbenzamide]: the IC50 at FAK [1] (setting [3]), on FAK [1] (setting [4]), at FAK [1] (setting [5]) and on FAK [2] was below 1 µM throughout.

On to `CCOP(=O)(Cc1ccc(Nc2ncc(C(F)(F)F)c(NCc3cccc(S(C)(=O)=O)c3)n2)cc1)OCC` [Example 25, diethyl (4-{[4-{[3-(methylsulfonyl)benzyl]amino}-5-(trifluoromethyl)pyrimidin-2-yl]amino}benzyl)phosphonate], for which the IC50 is 1 to 10 µM at FAK [1] (setting [5]) and below 1 µM on FAK [2].

For the compound `CCCCOP(=O)(Cc1ccc(Nc2ncc(C(F)(F)F)c(NCc3cccnc3N(C)S(C)(=O)=O)n2)cc1)OCCCC` [Example 26, Dibutyl [4-({4-[({2-[methyl(methylsulfonyl)amino]pyridin-3-yl}methyl)amino]-5-(trifluoromethyl)pyrimidin-2-yl}amino)benzyl]phosphonate], the IC50 at FAK [1] (setting [3]) is below 1 µM; on FAK [1] (setting [4]), below 1 µM; on FAK [1] (setting [5]), 1 to 10 µM; against FAK [2], below 1 µM.

As to `CCCOP(=O)(Cc1ccc(Nc2ncc(C(F)(F)F)c(NCc3cccnc3N(C)S(C)(=O)=O)n2)cc1)OCCC` [Example 28, dipropyl [4-({4-[({2-[methyl(methylsulfonyl)amino]pyridin-3-yl}methyl)amino]-5-(trifluoromethyl)pyrimidin-2-yl}amino)benzyl]phosphonate], the IC50 on FAK [1] (setting [3]), on FAK [1] (setting [4]), at FAK [1] (setting [5]) and against FAK [2] was below 1 µM throughout.

On to `CCC(C)OP(=O)(Cc1ccc(Nc2ncc(C(F)(F)F)c(NCc3cccnc3N(C)S(C)(=O)=O)n2)cc1)OC(C)CC` (stereo not drawn) [Example 29, dibutan-2-yl [4-({4-[({2-[methyl(methylsulfonyl)amino]pyridin-3-yl}methyl)amino]-5-(trifluoromethyl)pyrimidin-2-yl}amino)benzyl]phosphonate], for which the IC50 at FAK [1] (setting [3]) is below 1 µM; on FAK [1] (setting [4]), 1 to 10 µM; on FAK [1] (setting [5]), 1 to 10 µM; on FAK [2] it was below 1 µM.

As for `CC(C)COP(=O)(Cc1ccc(Nc2ncc(C(F)(F)F)c(NCc3cccnc3N(C)S(C)(=O)=O)n2)cc1)OCC(C)C` [Example 30, bis(2-methylpropyl) [4-({4-[({2-[methyl(methylsulfonyl)amino]pyridin-3-yl}methyl)amino]-5-(trifluoromethyl)pyrimidin-2-yl}amino)benzyl]phosphonate], the 50% inhibitory concentration (IC50) was 1 to 10 µM on FAK [1] (setting [3]), 1 to 10 µM on FAK [1] (setting [4]), 1 to 10 µM on FAK [1] (setting [5]) and below 1 µM against FAK [2].

Take `CN(c1ncccc1CNc1nc(Nc2ccc(CP3(=O)OCCCO3)cc2)ncc1C(F)(F)F)S(C)(=O)=O` [Example 31, N-methyl-N-[3-({[2-({4-[(2-oxido-1,3,2-dioxaphosphinan-2-yl)methyl]phenyl}amino)-5-(trifluoromethyl)pyrimidin-4-yl]amino}methyl)pyridin-2-yl]methanesulfonamide]: the IC50 at FAK [1] (setting [3]), on FAK [1] (setting [4]), on FAK [1] (setting [5]) and on FAK [2] was below 1 µM in each case.

As for `CN(c1ncccc1CNc1nc(Nc2ccc(CP3(=O)OCC(C)(C)CO3)cc2)ncc1C(F)(F)F)S(C)(=O)=O` [Example 32, N-[3-({[2-({4-[(5,5-dimethyl-2-oxido-1,3,2-dioxaphosphinan-2-yl)methyl]phenyl}amino)-5-(trifluoromethyl)pyrimidin-4-yl]amino}methyl)pyridin-2-yl]-N-methylmethanesulfonamide], the IC50 at FAK [1] (setting [3]), at FAK [1] (setting [4]), at FAK [1] (setting [5]) and on FAK [2] was below 1 µM each time.
